Experimental data from ChEMBL document CHEMBL5120776, “Asymmetric Total Synthesis of Griseofamine B and Its Three Stereoisomers” (2022).

System: Staphylococcus aureus
Experiment: Antibacterial activity against methicillin-resistant Staphylococcus aureus […] assessed as inhibition of bacterial growth incubated for 18 hrs by two-fold dilution assay
Format: functional

Row | Compound | MIC [µg/mL]
1 | CC(C)=C[C@@H]1c2cccc3[nH]cc(c23)C[C@@H]2C(=O)/C(=C(\C)O)C(=O)N21 | ≥ 64
2 | CC(C)=C[C@H]1c2cccc3[nH]cc(c23)C[C@H]2C(=O)/C(=C(\C)O)C(=O)N21 | ≥ 64
3 | CC(C)=C[C@H]1c2cccc3[nH]cc(c23)C[C@@H]2C(=O)/C(=C(\C)O)C(=O)N21 | ≥ 64
4 | CC(C)=C[C@@H]1c2cccc3[nH]cc(c23)C[C@H]2C(=O)/C(=C(\C)O)C(=O)N12 | ≥ 64

System: Staphylococcus epidermidis
Experiment: Antibacterial activity against Staphylococcus epidermidis ATCC 12228 assessed as inhibition of bacterial growth incubated for 18 hrs by two-fold dilution assay
Format: functional

Row | Compound | MIC [µg/mL]
5 | CC(C)=C[C@@H]1c2cccc3[nH]cc(c23)C[C@@H]2C(=O)/C(=C(\C)O)C(=O)N21 | ≥ 64
6 | CC(C)=C[C@H]1c2cccc3[nH]cc(c23)C[C@H]2C(=O)/C(=C(\C)O)C(=O)N21 | ≥ 64
7 | CC(C)=C[C@H]1c2cccc3[nH]cc(c23)C[C@@H]2C(=O)/C(=C(\C)O)C(=O)N21 | ≥ 64
8 | CC(C)=C[C@@H]1c2cccc3[nH]cc(c23)C[C@H]2C(=O)/C(=C(\C)O)C(=O)N12 | ≥ 64

System: Enterococcus faecalis
Experiment: Antibacterial activity against Enterococcus faecalis ATCC 29212 assessed as inhibition of bacterial growth incubated for 18 hrs by two-fold dilution assay
Format: functional

Row | Compound | MIC [µg/mL]
9 | CC(C)=C[C@@H]1c2cccc3[nH]cc(c23)C[C@@H]2C(=O)/C(=C(\C)O)C(=O)N21 | ≥ 64
10 | CC(C)=C[C@H]1c2cccc3[nH]cc(c23)C[C@H]2C(=O)/C(=C(\C)O)C(=O)N21 | ≥ 64
11 | CC(C)=C[C@H]1c2cccc3[nH]cc(c23)C[C@@H]2C(=O)/C(=C(\C)O)C(=O)N21 | ≥ 64
12 | CC(C)=C[C@@H]1c2cccc3[nH]cc(c23)C[C@H]2C(=O)/C(=C(\C)O)C(=O)N12 | ≥ 64

System: Staphylococcus aureus
Experiment: Antibacterial activity against Staphylococcus aureus ATCC 29213 assessed as inhibition of bacterial growth incubated for 18 hrs by two-fold dilution assay
Format: functional

Row | Compound | MIC [µg/mL]
13 | CC(C)=C[C@@H]1c2cccc3[nH]cc(c23)C[C@@H]2C(=O)/C(=C(\C)O)C(=O)N21 | ≥ 64
14 | CC(C)=C[C@H]1c2cccc3[nH]cc(c23)C[C@H]2C(=O)/C(=C(\C)O)C(=O)N21 | ≥ 64
15 | CC(C)=C[C@H]1c2cccc3[nH]cc(c23)C[C@@H]2C(=O)/C(=C(\C)O)C(=O)N21 | ≥ 64
16 | CC(C)=C[C@@H]1c2cccc3[nH]cc(c23)C[C@H]2C(=O)/C(=C(\C)O)C(=O)N12 | ≥ 64

System: Staphylococcus aureus
Experiment: Antibacterial activity against methicillin-resistant Staphylococcus aureus ATCC 33591 assessed as inhibition of bacterial growth incubated for 18 hrs by two-fold dilution assay
Format: functional

Row | Compound | MIC [µg/mL]
17 | CC(C)=C[C@@H]1c2cccc3[nH]cc(c23)C[C@@H]2C(=O)/C(=C(\C)O)C(=O)N21 | ≥ 64
18 | CC(C)=C[C@H]1c2cccc3[nH]cc(c23)C[C@H]2C(=O)/C(=C(\C)O)C(=O)N21 | ≥ 64
19 | CC(C)=C[C@H]1c2cccc3[nH]cc(c23)C[C@@H]2C(=O)/C(=C(\C)O)C(=O)N21 | ≥ 64
20 | CC(C)=C[C@@H]1c2cccc3[nH]cc(c23)C[C@H]2C(=O)/C(=C(\C)O)C(=O)N12 | ≥ 64

System: Enterococcus faecalis
Experiment: Antibacterial activity against vancomycin-resistant Enterococcus faecalis ATCC 51299 assessed as inhibition of bacterial growth incubated for 18 hrs by two-fold dilution assay
Format: functional

Row | Compound | MIC [µg/mL]
21 | CC(C)=C[C@@H]1c2cccc3[nH]cc(c23)C[C@@H]2C(=O)/C(=C(\C)O)C(=O)N21 | ≥ 64
22 | CC(C)=C[C@H]1c2cccc3[nH]cc(c23)C[C@H]2C(=O)/C(=C(\C)O)C(=O)N21 | ≥ 64
23 | CC(C)=C[C@H]1c2cccc3[nH]cc(c23)C[C@@H]2C(=O)/C(=C(\C)O)C(=O)N21 | ≥ 64
24 | CC(C)=C[C@@H]1c2cccc3[nH]cc(c23)C[C@H]2C(=O)/C(=C(\C)O)C(=O)N12 | ≥ 64

System: Staphylococcus aureus
Experiment: Antibacterial activity against Staphylococcus aureus […] assessed as inhibition of bacterial growth incubated for 18 hrs by two-fold dilution assay
Format: functional

Row | Compound | MIC [µg/mL]
25 | CC(C)=C[C@@H]1c2cccc3[nH]cc(c23)C[C@@H]2C(=O)/C(=C(\C)O)C(=O)N21 | ≥ 64
26 | CC(C)=C[C@H]1c2cccc3[nH]cc(c23)C[C@H]2C(=O)/C(=C(\C)O)C(=O)N21 | ≥ 64
27 | CC(C)=C[C@H]1c2cccc3[nH]cc(c23)C[C@@H]2C(=O)/C(=C(\C)O)C(=O)N21 | ≥ 64
28 | CC(C)=C[C@@H]1c2cccc3[nH]cc(c23)C[C@H]2C(=O)/C(=C(\C)O)C(=O)N12 | ≥ 64

System: Enterococcus faecium
Experiment: Antibacterial activity against Enterococcus faecium clinical isolate 16-5 assessed as inhibition of bacterial growth incubated for 18 hrs by two-fold dilution assay
Format: functional

Row | Compound | MIC [µg/mL]
29 | CC(C)=C[C@@H]1c2cccc3[nH]cc(c23)C[C@@H]2C(=O)/C(=C(\C)O)C(=O)N21 | ≥ 64
30 | CC(C)=C[C@H]1c2cccc3[nH]cc(c23)C[C@H]2C(=O)/C(=C(\C)O)C(=O)N21 | ≥ 64
31 | CC(C)=C[C@H]1c2cccc3[nH]cc(c23)C[C@@H]2C(=O)/C(=C(\C)O)C(=O)N21 | ≥ 64
32 | CC(C)=C[C@@H]1c2cccc3[nH]cc(c23)C[C@H]2C(=O)/C(=C(\C)O)C(=O)N12 | ≥ 64

System: Enterococcus faecium
Experiment: Antibacterial activity against vancomycin-resistant Enterococcus faecium ATCC 700221 assessed as inhibition of bacterial growth incubated for 18 hrs by two-fold dilution assay
Format: functional

Row | Compound | MIC [µg/mL]
33 | CC(C)=C[C@@H]1c2cccc3[nH]cc(c23)C[C@@H]2C(=O)/C(=C(\C)O)C(=O)N21 | ≥ 64
34 | CC(C)=C[C@H]1c2cccc3[nH]cc(c23)C[C@H]2C(=O)/C(=C(\C)O)C(=O)N21 | ≥ 64
35 | CC(C)=C[C@H]1c2cccc3[nH]cc(c23)C[C@@H]2C(=O)/C(=C(\C)O)C(=O)N21 | ≥ 64
36 | CC(C)=C[C@@H]1c2cccc3[nH]cc(c23)C[C@H]2C(=O)/C(=C(\C)O)C(=O)N12 | ≥ 64

System: Escherichia coli
Experiment: Antibacterial activity against Escherichia coli ATCC 25922 assessed as inhibition of bacterial growth incubated for 18 hrs by two-fold dilution assay
Format: functional

Row | Compound | MIC [µg/mL]
37 | CC(C)=C[C@@H]1c2cccc3[nH]cc(c23)C[C@@H]2C(=O)/C(=C(\C)O)C(=O)N21 | ≥ 64
38 | CC(C)=C[C@H]1c2cccc3[nH]cc(c23)C[C@H]2C(=O)/C(=C(\C)O)C(=O)N21 | ≥ 64
39 | CC(C)=C[C@H]1c2cccc3[nH]cc(c23)C[C@@H]2C(=O)/C(=C(\C)O)C(=O)N21 | ≥ 64
40 | CC(C)=C[C@@H]1c2cccc3[nH]cc(c23)C[C@H]2C(=O)/C(=C(\C)O)C(=O)N12 | ≥ 64

System: Staphylococcus epidermidis
Experiment: Antibacterial activity against methicillin-resistant Staphylococcus epidermidis clinical isolate 16-5 assessed as inhibition of bacterial growth incubated for 18 hrs by two-fold dilution assay
Format: functional

Row | Compound | MIC [µg/mL]
41 | CC(C)=C[C@@H]1c2cccc3[nH]cc(c23)C[C@@H]2C(=O)/C(=C(\C)O)C(=O)N21 | ≥ 64
42 | CC(C)=C[C@H]1c2cccc3[nH]cc(c23)C[C@H]2C(=O)/C(=C(\C)O)C(=O)N21 | ≥ 64
43 | CC(C)=C[C@H]1c2cccc3[nH]cc(c23)C[C@@H]2C(=O)/C(=C(\C)O)C(=O)N21 | ≥ 64
44 | CC(C)=C[C@@H]1c2cccc3[nH]cc(c23)C[C@H]2C(=O)/C(=C(\C)O)C(=O)N12 | ≥ 64
